According to ChEMBL document CHEMBL3044939, “Insect antifeedant and growth regulating activities of quassinoids from Samadera indica” (2001):

Key:
Assay type in all cases: functional
Spodoptera litura [1] = assay: Antifeedant activity against Spodoptera litura at 0.5 ug/cm'2 of castor leaf area relative to control
Spodoptera litura [2] = assay: Antifeedant activity against Spodoptera litura at 5 ug/cm'2 of castor leaf area relative to control
Spodoptera litura [3] = assay: Growth regulating activity of Spodoptera litura assessed as total larval time at 0.5 ug/cm'2 of castor leaf area after 24 hr
Spodoptera litura [4] = assay: Growth regulating activity of Spodoptera litura assessed as third-instar time at 0.5 ug/cm'2 of castor leaf area after 24 hr
Spodoptera litura [5] = assay: Insecticidal activity against Spodoptera litura assessed as pupal mortality at 0.5 ug/cm'2 of castor leaf area after 24 hr
Spodoptera litura [6] = assay: Growth regulating activity of Spodoptera litura assessed as fourth-instar time at 0.5 ug/cm'2 of castor leaf area after 24 hr
Spodoptera litura [7] = assay: Growth regulating activity of Spodoptera litura assessed as sixth-instar time at 0.5 ug/cm'2 of castor leaf area after 24 hr
Spodoptera litura [8] = assay: Growth regulating activity of Spodoptera litura assessed as fifth-instar time at 0.5 ug/cm'2 of castor leaf area after 24 hr
Spodoptera litura [9] = assay: Antifeedant activity against Spodoptera litura at 1 ug/cm'2 of castor leaf area relative to control
Spodoptera litura [10] = assay: Growth regulating activity of Spodoptera litura assessed as pupal time at 0.5 ug/cm'2 of castor leaf area after 24 hr

Row | Compound | Activity (Spodoptera litura [1]) | Activity (Spodoptera litura [2]) | Time (Spodoptera litura [3]) | Time (Spodoptera litura [4]) | Activity (Spodoptera litura [5]) | Time (Spodoptera litura [6]) | Time (Spodoptera litura [7]) | Time (Spodoptera litura [8]) | Activity (Spodoptera litura [9]) | Time (Spodoptera litura [10])
1 | CC1=CC(=O)[C@@]2(C)C1=CC(=O)[C@@]13CO[C@]4(C)[C@@H](OC(=O)[C@@H]41)[C@H](O)[C@H]23 [SAMADERINS A] | 18.9% | 21.1% | 15.1 days | 2.9 days | 7.4% | 3.6 days | 4.8 days | 3.6 days | 16.2% | 8.8 days
2 | CC1=CC(=O)[C@@H](O)[C@@]2(C)[C@H]1[C@@H](O)[C@H]1OC(=O)C[C@]3(O)[C@]14CO[C@@]3(C)[C@@H](O)[C@H](O)[C@H]24 [INDAQUASSIN C] | 47.6% | 62.5% | 14.2 days | 2.3 days | 10.5% | 3.8 days | 4.9 days | 3.4 days | 48.9% | 8.5 days
3 | CC1=C[C@H](O)[C@@H](O)[C@@]2(C)[C@H]1CC(=O)[C@@]13CO[C@]4(C)[C@@H](OC(=O)[C@@H]41)[C@H](O)[C@@H]32 [SAMADERINS C] | 15% | 55.3% | 15.3 days | 2.7 days | 54.1% | 4.4 days | 4.4 days | 3.8 days | 16.1% | 9.7 days
4 | CC1=CC(=O)[C@@H](O)[C@@]2(C)[C@H]1CC(=O)[C@@]13CO[C@]4(C)[C@@H](OC(=O)[C@@H]41)[C@H](O)[C@@H]32 [SAMADERINS B] | 16.3% | 63.1% | 15.6 days | 3.1 days | 37.5% | 3.8 days | 5.1 days | 3.4 days | 25.9% | 9.3 days
5 | C/C=C(\C)C(=O)O[C@H]1C[C@@H](OC(C)=O)[C@@]2(C(=O)OC)CO[C@H]3[C@@H](O)[C@@](C)([C@]45O[C@@]4(C)[C@@H]4C[C@H]5O[C@@H]5OC=C[C@@]54O)[C@H]4[C@]1(CO[C@]4(O)C(=O)OC)[C@@H]32 [AZADIRACHTIN A] | 91.6% | 95.4% | 16.1 days | 3.2 days | 62.5% | 4.1 days | 5.4 days | 3.3 days | 94.8% | 9.3 days
